Experimental data taken from patent publication US10709714B2 (CL BioSciences LLC, priority 2013, dated 2020).
Marks after values point to notes of the source that are not given here.

Legend:
Assay type in all cases: in vivo
ovariectomized CD-1 mice [1] = experiment: MicroCT of trabecular and cortical bone, Model 1 mouse OVX
ovariectomized CD-1 mice [2] = experiment: Bone strength (Instron), Model 1 mouse OVX
ovariectomized CD-1 mice [3] = experiment: Circulating blood markers, Model 1 mouse OVX
Description: Ovariectomy increased all three bone markers, PINP, CTX1 and osteocalcin. […] CON=control animals, OVX=ovariectomized animals, OVX+GA=gastrin antagonist treated ovariectomized animals. Mean±SEM. *p<0.05 vs. CON, **p<0.05 vs. OVX alone.
Circulating bone biomarkers were also altered by OVX. Specifically, PINP was increased (0.19±0.01 ng/ml vs. 0.1y±0.006, p<0.05) as was CTx-1 (0.60±0.14 ng/ml vs. 0.29±0.13, p<0.05) and osteocalcin was elevated (6.7±2.3 ng/ml vs. 4.1±1.2, p<0.05). Treatment with the antagonist attenuated each of these three ovariectomy-mediated alterations.

ovariectomized CD rats = experiment: Circulating blood markers, Model 2 rat OVX
Description: Ovariectomy increased PINP and osteocalcin. […] CON=control animals, OVX=ovariectomized animals, OVX+GA=gastrin antagonist treated ovariectomized animals. Mean±SEM. *p<0.05 vs. CON, **p<0.05 vs. OVX alone.
Circulating bone biomarkers were also altered by OVX. Specifically, both PINP (0.57±0.18 ng/ml vs. 0.35±0.06, p<0.05) and osteocalcin was elevated (1.35±0.9 ng/ml vs. 0.43±0.07, p<0.05). Treatment with the antagonist attenuated each of these ovariectomy-mediated alterations.

ovariectomized Mastomys [4] = experiment: MicroCT of trabecular and cortical bone, Model 3 Mastomys OVX
ovariectomized Mastomys [5] = experiment: Circulating blood markers, Model 3 Mastomys OVX
Description: CON=control animals, OVX=ovariectomized animals, OVX+GA=gastrin antagonist treated ovariectomized animals. Mean±SEM. *p<0.05 vs. CON, **p<0.05 vs. OVX alone.
Circulating bone biomarkers were also altered by OVX. Specifically, PINP was increased (0.16±0.03 ng/ml vs. 0.13±0.01, p<0.05) as was CTx-1 (0.24±0.17 ng/ml vs. 0.03±0.03, p<0.05) while osteocalcin was elevated (1.6±1.1 ng/ml vs. 0.4±0.16, p<0.05). Treatment with the antagonist attenuated each of these three ovariectomy-mediated alterations.

[6] = OVX CD-1 mice + omeprazole, GA 15 ug/animal single s.c., 8 weeks, cortical bone
[7] = OVX CD-1 mice + omeprazole, GA 15 ug/animal single s.c., 8 weeks, trabecular bone
[8] = OVX CD-1 mice, GA-treated vs control, cortical bone
[9] = OVX CD-1 mice, GA-treated vs control, trabecular bone
[10] = OVX CD-1 mice + omeprazole, GA 15 ug/animal single s.c., 8 weeks
[11] = OVX CD-1 mice, GA-treated vs control
[12] = OVX CD rats + omeprazole, GA 50 ug/animal single s.c., 8 weeks
[13] = OVX CD rats, GA-treated vs control
[14] = OVX Mastomys + loxitidine, GA 10 ug/animal single s.c., 8 weeks, cortical bone
[15] = OVX Mastomys + loxitidine, GA 10 ug/animal single s.c., 8 weeks, trabecular bone
[16] = OVX Mastomys + loxitidine, GA 10 ug/animal single s.c., 8 weeks, trabecular bone, listed as GA
[17] = OVX Mastomys + loxitidine, GA 10 ug/animal single s.c., 8 weeks, trabecular bone, listed as Gastrin antagonist
[18] = OVX Mastomys, GA-treated vs control, cortical bone
[19] = OVX Mastomys, GA-treated vs control, trabecular bone
[20] = OVX Mastomys + loxitidine, GA 10 ug/animal single s.c., 8 weeks
[21] = OVX Mastomys + loxitidine, GA 10 ug/animal single s.c., 8 weeks, listed as GA
[22] = OVX Mastomys + loxitidine, GA 10 ug/animal single s.c., 8 weeks, listed as antagonist
[23] = OVX Mastomys, GA-treated vs control

In the case of `CNc1cccc(NC(=O)N[C@@H]2N=C(c3ccccn3)c3ccccc3N(CC(=O)C(C)(C)C)C2=O)c1` [YF476, netazepide], the BS (ovariectomized CD-1 mice [1]; [6]) is reported as 11.3, the BV/TV (ovariectomized CD-1 mice [1]; [6]) is reported as 0.93 and the “Ct. Th” value (ovariectomized CD-1 mice [1]; [6]) is reported as 0.21. The pMOI (ovariectomized CD-1 mice [1]; [6]) was 0.35, the “Dens (Apparent Density, cortical)” value (ovariectomized CD-1 mice [1]; OVX CD-1 mice + omeprazole, GA 15 ug/animal single s.c., 8 weeks, cortical bone, listed as GA) was 1025 and the “Dens (Apparent Density, cortical)” value (ovariectomized CD-1 mice [1]; OVX CD-1 mice + omeprazole, GA 15 ug/animal single s.c., 8 weeks, cortical bone, listed as Gastrin-antagonist) was 1025±37. The BS (ovariectomized CD-1 mice [1]; [7]) was 16.8, the BV/TV (ovariectomized CD-1 mice [1]; [7]) was 0.123 and the Conns-Dens (ovariectomized CD-1 mice [1]; [7]) was 128.6. The SMI (ovariectomized CD-1 mice [1]; [7]) was 1.38, the “Tb. N” value (ovariectomized CD-1 mice [1]; [7]) was 2.43 and the “Tb. Sp” value (ovariectomized CD-1 mice [1]; [7]) was 0.528. For the same compound, the “Tb. Th” value (ovariectomized CD-1 mice [1]; [7]) was 0.051, the “Dens (Apparent Density, trabecular)” value (ovariectomized CD-1 mice [1]; OVX CD-1 mice + omeprazole, GA 15 ug/animal single s.c., 8 weeks, trabecular bone, listed as GA) was 70.7 and the “Dens (Apparent Density, trabecular)” value (ovariectomized CD-1 mice [1]; OVX CD-1 mice + omeprazole, GA 15 ug/animal single s.c., 8 weeks, trabecular bone, listed as Gastrin antagonist) was 70.7±19. For the same compound, the “% Change BS” value (ovariectomized CD-1 mice [1]; [8]) was −15%*, the “% Change BV/TV” value (ovariectomized CD-1 mice [1]; [8]) was 2%* and the “% Change Ct. Th” value (ovariectomized CD-1 mice [1]; [8]) was “+39%*^,**”. The “% Change Dens (Apparent Density, cortical)” value (ovariectomized CD-1 mice [1]; [8]) was −11%*^,**, the “% Change pMOI” value (ovariectomized CD-1 mice [1]; [8]) was −11% and the “% Change BS” value (ovariectomized CD-1 mice [1]; [9]) was −32%*^, **. The “% Change BV/TV” value (ovariectomized CD-1 mice [1]; [9]) was −33%*^, **, the “% Change Conns-Dens” value (ovariectomized CD-1 mice [1]; [9]) was −62%*^, ** and the “% Change Dens (Apparent Density, trabecular)” value (ovariectomized CD-1 mice [1]; [9]) was −60%*^, **. For the same compound, the “% Change SMI” value (ovariectomized CD-1 mice [1]; [9]) was “+20%**”, the “% Change Tb. N” value (ovariectomized CD-1 mice [1]; [9]) was −30%*^, ** and the “% Change Tb. Sp” value (ovariectomized CD-1 mice [1]; [9]) was “+82%*”. For the same compound, the “% Change Tb. Th” value (ovariectomized CD-1 mice [1]; [9]) was “+28%*”, the “Max Load” value (ovariectomized CD-1 mice [2]; [10]) was 44.1 and the Stiffness (ovariectomized CD-1 mice [2]; [10]) was 285. The “Total Work” value (ovariectomized CD-1 mice [2]; [10]) was 19.4, the “Yield (Stiffness)” value (ovariectomized CD-1 mice [2]; [10]) was 256 and the “Fracture Load” value (ovariectomized CD-1 mice [2]; OVX CD-1 mice + omeprazole, GA 15 ug/animal single s.c., 8 weeks, listed as GA) was 42.8. The “Fracture Load” value (ovariectomized CD-1 mice [2]; OVX CD-1 mice + omeprazole, GA 15 ug/animal single s.c., 8 weeks, listed as gastrin antagonist) was 43±6, the “% Change Fracture Load” value (ovariectomized CD-1 mice [2]; [11]) was −24%* and the “% Change Max Load” value (ovariectomized CD-1 mice [2]; [11]) was −28%*. For the same compound, the “% Change Stiffness” value (ovariectomized CD-1 mice [2]; [11]) was −3%**, the “% Change Total Work” value (ovariectomized CD-1 mice [2]; [11]) was −4%** and the “% Change Yield (Stiffness)” value (ovariectomized CD-1 mice [2]; [11]) was −5%**. For the same compound, the CTX-1 (ovariectomized CD-1 mice [3]; [10]) was 053 ng/mL, the “ESR (circulating estrogen)” value (ovariectomized CD-1 mice [3]; [10]) was 1.47 pg/mL and the “Gastrin (circulating)” value (ovariectomized CD-1 mice [3]; [10]) was 2971 pg/mL. For the same compound, the Osteocalcin (ovariectomized CD-1 mice [3]; [10]) was 5.3 ng/mL, the PINP (ovariectomized CD-1 mice [3]; [10]) was 0.169 ng/mL and the “PTH (circulating)” value (ovariectomized CD-1 mice [3]; [10]) was 92.1 pg/mL. For the same compound, the “% Change CTX-1” value (ovariectomized CD-1 mice [3]; [11]) was −9%**, the “% Change ESR” value (ovariectomized CD-1 mice [3]; [11]) was −71%* and the “% Change Gastrin” value (ovariectomized CD-1 mice [3]; [11]) was “+22%”. The “% Change Osteocalcin” value (ovariectomized CD-1 mice [3]; [11]) was “+30%**”, the “% Change PINP” value (ovariectomized CD-1 mice [3]; [11]) was 0%** and the “% Change PTH” value (ovariectomized CD-1 mice [3]; [11]) was “+79%*”. For the same compound, the CTX1 (ovariectomized CD rats; [12]) was 0.42, the “ESR (circulating estrogen)” value (ovariectomized CD rats; [12]) was 2.1 pg/mL and the “Gastrin (circulating)” value (ovariectomized CD rats; [12]) was 2971 pg/mL. For the same compound, the Osteocalcin (ovariectomized CD rats; [12]) was 0.80 ng/mL, the PINP (ovariectomized CD rats; [12]) was 0.48 ng/mL and the “PTH (circulating)” value (ovariectomized CD rats; [12]) was 1562. The “% Change CTX1” value (ovariectomized CD rats; [13]) was −49%, the “% Change ESR” value (ovariectomized CD rats; [13]) was −60%* and the “% Change Gastrin” value (ovariectomized CD rats; [13]) was “+183%*”. For the same compound, the “% Change Osteocalcin” value (ovariectomized CD rats; [13]) was “+81%**”, the “% Change PINP” value (ovariectomized CD rats; [13]) was “+41%” and the “% Change PTH” value (ovariectomized CD rats; [13]) was −15%. For the same compound, the BS (ovariectomized Mastomys [4]; [14]) was 14.21, the BV/TV (ovariectomized Mastomys [4]; [14]) was 0.953 and the “Ct. Th” value (ovariectomized Mastomys [4]; [14]) was 0.288. For the same compound, the “Dens (Apparent Density, cortical)” value (ovariectomized Mastomys [4]; [14]) was 1159, the pMOI (ovariectomized Mastomys [4]; [14]) was 1.10 and the BS (ovariectomized Mastomys [4]; [15]) was 19.2. For the same compound, the BV/TV (ovariectomized Mastomys [4]; [15]) was 0.175, the Conns-Dens (ovariectomized Mastomys [4]; [15]) was 124.1 and the SMI (ovariectomized Mastomys [4]; [15]) was 0.74. The “Tb. Sp” value (ovariectomized Mastomys [4]; [15]) was 0.457, the “Dens (Apparent Density, trabecular)” value (ovariectomized Mastomys [4]; [16]) was 187.1 and the “Tb. N” value (ovariectomized Mastomys [4]; [16]) was 2.38. For the same compound, the “Tb. Th” value (ovariectomized Mastomys [4]; [16]) was 0.086, the “Dens (Apparent Density, trabecular)” value (ovariectomized Mastomys [4]; [17]) was 187±66 and the “Tb. N” value (ovariectomized Mastomys [4]; [17]) was 2.4±0.6. The “Tb. Th” value (ovariectomized Mastomys [4]; [17]) was 0.08±0.01, the “% Change BS” value (ovariectomized Mastomys [4]; [18]) was −1% and the “% Change BV/TV” value (ovariectomized Mastomys [4]; [18]) was 0%. For the same compound, the “% Change Ct. Th” value (ovariectomized Mastomys [4]; [18]) was −1%, the “% Change Dens (Apparent Density, cortical)” value (ovariectomized Mastomys [4]; [18]) was −4% and the “% Change pMOI” value (ovariectomized Mastomys [4]; [18]) was −4%. For the same compound, the “% Change BS” value (ovariectomized Mastomys [4]; [19]) was “+4%**”, the “% Change BV/TV” value (ovariectomized Mastomys [4]; [19]) was “+27%**” and the “% Change Conns-Dens” value (ovariectomized Mastomys [4]; [19]) was “+28%”. The “% Change Dens (Apparent Density, trabecular)” value (ovariectomized Mastomys [4]; [19]) was “+19%**”, the “% Change SMI” value (ovariectomized Mastomys [4]; [19]) was 0% and the “% Change Tb. N” value (ovariectomized Mastomys [4]; [19]) was “+18%**”. The “% Change Tb. Sp” value (ovariectomized Mastomys [4]; [19]) was −20%**, the “% Change Tb. Th” value (ovariectomized Mastomys [4]; [19]) was “+25%*^; **” and the CTX-1 (ovariectomized Mastomys [5]; [20]) was 0.1 ng/mL. For the same compound, the “ESR (circulating estrogen)” value (ovariectomized Mastomys [5]; [20]) was 2.54 pg/mL, the Osteocalcin (ovariectomized Mastomys [5]; [20]) was 1.13 ng/mL and the PINP (ovariectomized Mastomys [5]; [20]) was 0.13 ng/mL. For the same compound, the “Gastrin (circulating)” value (ovariectomized Mastomys [5]; [21]) was 2703 pg/mL, the “PTH (circulating)” value (ovariectomized Mastomys [5]; [21]) was 151 pg/mL and the “Gastrin (circulating)” value (ovariectomized Mastomys [5]; [22]) was 2704 ± 430 pg/mL. For the same compound, the “PTH (circulating)” value (ovariectomized Mastomys [5]; [22]) was 150 ± 37 pg/mL, the “% Change CTX-1” value (ovariectomized Mastomys [5]; [23]) was “+230%” and the “% Change ESR” value (ovariectomized Mastomys [5]; [23]) was −70%*. The “% Change Gastrin” value (ovariectomized Mastomys [5]; [23]) was −27%**, the “% Change Osteocalcin” value (ovariectomized Mastomys [5]; [23]) was “+13%” and the “% Change PINP” value (ovariectomized Mastomys [5]; [23]) was 0%*^, **. For the same compound, the “% Change PTH” value (ovariectomized Mastomys [5]; [23]) was −48%*^, **.
